In patent US10106762B2, “Treating a textile garment with a hydrophobic dye solution” (Henkel IP & Holding GmbH, priority 2004, dated 2018):

Assays:
[1] = Optical density of dye solution; assay type: physicochemical; settings: 200 ppb solution in water at 10 cm; extrapolated from measurement in ethanol solutions at higher levels
LogP of dye = assay type: physicochemical

Molecule | OD 10 cm [1] | logP (LogP of dye)
COc1cc(/N=N/c2c(Br)cc([N+](=O)[O-])cc2[N+](=O)[O-])c(NC(C)=O)cc1N(CCOC(C)=O)CCOC(C)=O [Disperse Blue 79:1] | 0.048 | 4.5
CCN(CC)c1ccc(/N=N/c2c(C#N)cc([N+](=O)[O-])cc2C#N)c(NC(C)=O)c1 [Disperse Blue 165] | 0.014 | 3.5
Disperse Blue 367 | 0.0067 | 

Second part, the molecule after the results:

OD 10 cm [1] | logP (LogP of dye) | Molecule
0.26 | 4.5 | CN=C1C=CC(=C(c2ccc(N(C)C)cc2)c2ccc(N(C)C)cc2)C=C1 [Solvent Violet 8, Solvent Violet 8 (Methyl Violet B Base)]
0.023 | 4 | CCN(CCO)c1ccc(/N=N/c2ccc([N+](=O)[O-])cc2)cc1 [disperse red 1]
0.11 | 8.5 | CC1(C)Nc2cccc3c(/N=N/c4ccc(/N=N/c5ccccc5)c5ccccc45)ccc(c23)N1 [solvent black 3]
0.33 |  | Solvent blue 43
